Patent publication EP4741427A1, “GLYCAN, PREPARATION METHOD THEREFOR AND USE THEREOF, AND ANTI-TUMOR DRUG” (Peking University, priority 2023, dated 2025)

What was measured:
[1] = test system: Aspc-1; assay: CCK-8 proliferation inhibition of pancreatic cancer cells; type: cell-based; conditions: 72 h
Source text: (§1) Three pancreatic cancer cell lines (Aspc-1, Bxpc-3, Panc-1) and the hepatocyte cell line LO2 used in the experiments were provided by Peking University People's Hospital and the Institute of Materia Medica, Chinese Academy of Medical Sciences. The culture conditions for Aspc-1 and Bxpc-3 cells were RPMI 1640 medium (Gibco, Thermo Fisher Scientific, USA) supplemented with 10% fetal bovine serum (HyClone, Thermo Fisher Scientific, USA) and 1% penicillin/streptomycin (Life Technologies, Thermo Fisher Scientific, USA). The culture conditions for Panc-1 and LO2 cells were DMEM medium (Gibco, Thermo Fisher Scientific, USA) supplemented with 10% fetal bovine serum (HyClone, Thermo Fisher Scientific, USA) and 1% penicillin/streptomycin (Life Technologies, Thermo Fisher Scientific, USA). Cell culture was conducted at 37°C with adequate humidity and 5% CO2 concentration.
(§2) Three types of pancreatic cancer cells (Aspc-1, Bxpc-3, Panc-1) were seeded into 96-well plates at a density of 5×10^3 cells/well (100 µL). After the cells adhered, gemcitabine (50 µM), compound 2-11 (140-mer 2-11, 50 µM), 2-30 (70-mer 2-30, 50 µM), 2-31 (40-mer 2-31, 50 µM), 2-32 (30-mer 2-32, 50 µM), 2-33 (10-mer A 2-33, 50 µM), 2-34 (10-mer B 2-34, 50 µM), 2-35 (5-mer A 2-35, 50 µM), 2-36 (5-mer B 2-36, 50 µM), and 2-37 (5-mer C 2-37, 50 µM) were added, respectively. The cells were co-incubated for 72 h. Then, 10 µL of CCK-8 reagent was added to each well and incubated at 37°C for 2 h. After thorough mixing, the absorbance at 450 nm was measured by using a microplate reader. A cell survival rate was calculated by using the following formula: Cell survival rate(%) = (ODsample−OD_blank)/(OD_control−OD_blank) × 100%. [formula]
(§3) Three types of pancreatic cancer cells (Aspc-1, Bxpc-3, and Panc-1) were seeded into 96-well plates at a density of 5×10^3 cells/well (100 µL). After the cells adhered, different concentrations of compound 2-34 (3.125 µM, 6.25 µM, 12.5 µM, 25 µM, 50 µM, 100 µM) were added. The cells were co-incubated for 72 h. Then, 10 µL of CCK-8 reagent was added to each well and incubated at 37°C for 2 h. After thorough mixing, the absorbance at 450 nm was measured by using a microplate reader, and the cell survival rate was calculated.

[2] = test system: Panc-1; assay: as above; type: cell-based; conditions: 72 h
Source text: as §1, §2, §3

[3] = test system: LO2 hepatocytes; assay: CCK-8 cytotoxicity on hepatocytes; type: cell-based, human; conditions: concentration up to 100 µM, 72 h
Source text: as §1
LO2 hepatocytes were seeded into 96-well plates at a density of 5×10^3 cells/well (100 µL). After the cells adhered, different concentrations of compound 2-34 (3.125 µM, 6.25 µM, 12.5 µM, 25 µM, 50 µM, 100 µM) and the positive control drug gemcitabine (3.125 µM, 6.25 µM, 12.5 µM, 25 µM, 50 µM, 100 µM) were added, respectively. The cells were co-incubated for 72 h. […] After thorough mixing, the absorbance at 450 nm was measured by using a microplate reader, and the cell survival rate was calculated.

[4] = test system: Panc-1 cells; assay: Apoptosis, Annexin V-FITC/PI double staining with flow cytometry; type: cell-based; conditions: 72 h
Method: Pancreatic cancer Panc-1 cells were seeded into 24-well plates at a density of 3×10^4 cells/well. After the cells adhered, different concentrations of compound 2-34 (25 µM, 50 µM, 100 µM) were added and co-incubated for 72 h. All cells were collected, washed 2 times with PBS, and resuspended in binding buffer (Beyotime, Shanghai, China). Then, 5 µL of Annexin V-FITC (fluorescein isothiocyanate) and 10 µL of PI (propidium iodide) dye were added in sequence, and the cells were stained in the dark for 20 min. The apoptosis rate was detected by using a flow cytometer (Beckman CytoFLEX), and the specific apoptosis ratio was analyzed by using CytoFLEX software.

[5] = test system: Bxpc-3; assay: CCK-8 proliferation inhibition of pancreatic cancer cells; type: cell-based; conditions: 72 h
Source text: as §1, §2, §3

[6] = test system: Panc-1 cells; assay: Cell cycle, PI staining with flow cytometry; type: cell-based; conditions: 72 h
Method: Pancreatic cancer Panc-1 cells were seeded into 24-well plates at a density of 6×10^4 cells/well. After the cells adhered, different concentrations of compound 2-34 (25 µM, 50 µM, 100 µM) were added and co-incubated for 72 h. All cells were collected, washed 2 times with PBS, and fixated in 70% (volume fraction) ethanol overnight. The fixated cells were collected, washed 2 times with PBS, and stained with PI staining solution containing RNase (ribonuclease) in the dark for 30 min. The nucleic acid content in the cells was detected by using a flow cytometer, and the percentage of cells in each cycle phase was analyzed by using ModFit software.

## Nc1ccn([C@@H]2O[C@H](CO)[C@@H](O)C2(F)F)c(=O)n1 [gemcitabine, reference compound]
[1]; Homo sapiens, ASPC1, Aspc-1, 50 µM, read-out: inhibition rates
  inhibition at 50 µM: 61.4%
[2]; Homo sapiens, Panc-1, 50 µM, read-out: inhibition rates
  inhibition at 50 µM: 23.2%

## Octylβ-D-galactopyranosyl-(1→6)-β-D-galactopyranosyl-(1→6)-β-D-galactopyranosyl-( 1→6)-{α-L-arabinofuranosyl-(1→5)-α-L-arabinofuranosyl-(1→5)-α-L-arabinofuransyl-(1→5)-[ β-D-galactopyranosyl-(1→3)]-α-L-arabinofuranosyl-(1→3)-β-D-galactopyranosyl-(1→3)}-β-D-galactopyranoside [compound 2-34]
[3]
  cytotoxicity towards the growth of LO2 hepatocytes: no cytotoxicity
[4]; Panc-1, 25 µM
  apoptosis rate: 31.99%
[4]; Panc-1, 50 µM
  apoptosis rate: 31.92%
[4]; Panc-1, 100 µM
  apoptosis rate: 67.59%
[5]; Bxpc-3, 50 µM
  inhibition rates: 29.5%
[5]; Bxpc-3, 3.125-100 µM
  proliferation inhibition, concentration dependence: significant concentration dependence
[1]; Aspc-1, 50 µM
  inhibition rates: 74.9%
[1]; Aspc-1, 3.125-100 µM
  proliferation inhibition, concentration dependence: significant concentration dependence
[2]; Panc-1, 50 µM
  inhibition rates: 72.1%
[2]; Panc-1, 3.125-100 µM
  proliferation inhibition, concentration dependence: significant concentration dependence
[6]; Panc-1, 25 µM, 50 µM, 100 µM
  number of cells in the G2 phase: remains relatively stable with minor changes
[6]; Panc-1, 25 µM
  proportion of cells in the G1 phase: 51.33%
  proportion of cells in the S phase: 22.19%
[6]; Panc-1, 50 µM
  proportion of cells in the G1 phase: 46.99%
  proportion of cells in the S phase: 27.66%
[6]; Panc-1, 100 µM
  proportion of cells in the G1 phase: 42.43%
  proportion of cells in the S phase: 36.29%
